Experimental data published in patent US4978666A, “Optically active piperazine derivative” (Nippon Chemiphar Co., Ltd., priority 1988, dated 1990).
Where a name gives a salt, the structure may show the parent alone.

What was measured:
Type in all cases: in vivo
[1] = tested on: SD-strain female rats; assay: Acute toxicity (oral LD50 in rats); details: SD-strain female rats 150 to 200 g, observed for 2 weeks, 20160 min, dihydrochloride
Source text: (§1) The peripheral vasodilating effect (action for increase of blood flow of vertebrae) and acute toxicity of (-)-1-(3,4-dimethoxyphenyl)-2-(4-diphenylmethylpiperazinyl)ethanol dihydrochloride according to the invention, (+)-1-(3,4-dimethoxyphenyl)-2-(4-diphenylmethylpiperazinyl)ethanol dihydrochloride, and (±)-1-(3,4-dimethoxyphenyl)-2-(4-diphenylmethylpiperazinyl)ethanol dihydrochloride are illustrated by the following examples.
(§2) Each of the (-)-, (+)- and (±)-piperazine derivatives were orally administered to SD-strain female rats each having a body weight of 150 to 200 g.

[2] = tested on: vertebral blood flow; assay: Peripheral vasodilating effect (vertebral blood flow increase in anesthetized dogs); details: i.v., anesthetized mongrel dogs
Source text: as §1
Mongrel Dogs of both sexes each weighing about 10 kg were anesthetized with sodium pentobarbital (35 mg/kg, i.v.). Artificial respiration was performed with room air. The vertebral blood flow and femoral blood flow were measured by an electromagnetic flowmeter (avilable from Nihon Koden, MF-27 and MFV-1100) with flow probes. The blood pressure and heart rate were measured at the same time. […]

[3] = Concentration in blood after administration to beagle dogs; details: as compared with administration of the (+)-derivative
[4] = Acute toxicity (oral LD50 in rats); details: rat, in vivo, po, SD-strain female rats 150 to 200 g, observed for 2 weeks
Source text: as §1, §2

Row | Structure (SMILES) | LD50 [1] [mg/kg] | Percentage of vertebral blood flow increase ([2]; 0.03 mg/kg, dihydrochloride) [%] | Percentage of vertebral blood flow increase ([2]; 0.1 mg/kg, dihydrochloride) [%] | concentration in blood (determined from an area of a measured blood concentration curve) [3] | LD50 at 336 h [4] [mg/kg] | Percentage of vertebral blood flow increase ([2]; 0.03 mg/kg) [%] | Percentage of vertebral blood flow increase ([2]; 0.1 mg/kg) [%]
1 | COc1ccc(C(O)CN2CCN(C(c3ccccc3)c3ccccc3)CC2)cc1OC (single isomer, unassigned; (+)) [(+)-Derivative, (+)-1-(3,4-dimethoxyphenyl)-2-(4-diphenylmethylpiperazinyl)ethanol dihydrochloride] | 14.3 | 13.4 | 34.3 | – | – | – | –
2 | COc1ccc(C(O)CN2CCN(C(c3ccccc3)c3ccccc3)CC2)cc1OC (single isomer, unassigned; (-)) [(-)-Derivative, (-)-1-(3,4-dimethoxyphenyl)-2-(4-diphenylmethylpiperazinyl)ethanol dihydrochloride] | 45.4 | 22.9 | 48.0 | high concentration in blood | – | – | –
3 | COc1ccc(C(O)CN2CCN(C(c3ccccc3)c3ccccc3)CC2)cc1OC (racemic) [(±)-Derivative, (±)-1-(3,4-dimethoxyphenyl)-2-(4-diphenylmethylpiperazinyl)ethanol dihydrochloride] | – | – | – | – | 29.1 | 16.9 | 43.9
